Measurements from patent publication US20250084097A1, “MACROCYCLIC AMIDE COMPOUNDS AND APPLICATION THEREOF” (Medshine Discovery Inc., priority 2021, published 2025).

Target: Ba/F3-FL-EGFR (del19-E746-A750/C797S) (Homo sapiens, UniProt P00533, DEL746-750/C797S, cells depend on it)
Assay: Cell proliferation inhibition, CellTiter-Glo
Format: cell-based
Conditions: 72 hours, read-out: Cell half-maximal inhibition concentration IC50 Ba/F3-FL-EGFR (del19-E746-A750/C797S)
Method: AdenosineTri-Phosphate (ATP) is an energy carrier shared by various life activities in nature, and is the smallest unit of energy storage and transfer. The CellTiter-Glo™ living cell assay kit uses luciferase as a detector, and luciferase requires the participation of ATP in the process of luminescence. CellTiter-Glo™ reagent is added to a cell culture medium, and the luminescence value is measured. The light signal is directly proportional to the amount of ATP in the system, and ATP is positively correlated with the number of living cells. Therefore, cell proliferation can be detected by detecting ATP content with the CellTiter-Glo kit. In this assay, the cell lines were Ba/F3-FL-EGFR (L858R/T790M/C797S), Ba/F3-FL-EGFR (WT), Ba/F3-FL-EGFR (L858R), Ba/F3-FL-EGFR (del19-S752-I759), Ba/F3-FL-EGFR (del19-E746-A750/T790M/C797S), Ba/F3-FL-EGFR (L858R/T790M), Ba/F3-FL-EGFR (del19-E746-A750/T790M), Ba/F3-TEL-EGFR (L858R/C797S), Ba/F3-FL-EGFR (del19-E746-A750/C797S) stably transfected cell lines.
The cell lines were cultured in an incubator at 37° C. and 5% CO2. The cells were periodically passaged, and cells in logarithmic growth phase were taken for plating.
a) DMSO was used to prepare a 10 mM solution of the compound to be tested, and then the compound to be tested was diluted to 0.3 or 1 mM with DMSO.
b) Preparation of 1000× compound storage plate (tube): DMSO was used to dilute by 3-fold gradient from the highest concentration to the lowest concentration, with a total of 9 concentrations.
c) Preparation of 20× compound working solution: 49 μL of cell culture medium was added to a flat-bottomed 96-well transparent drug plate, and 1 μL of compound was pipetted from the 1000× compound storage plate to the cell culture medium of the 96-well transparent drug plate. 1 μL of DMSO was added to the vehicle control. After adding compound or DMSO, the well content was mixed to uniform by aspiration and expelling with pipette.
a) Cells were stained with trypan blue and viable cells were counted. The cell viability rate was required to be above 90%.
b) 95 μL of cell suspension (2000 cells/well) was added to each well of the compound detection cell plate, and culture medium without cells (containing 0.1% DMSO) was added to the Min control well.
c) Dosing in the compound detection cell plate: 5 μL of 20× compound working solution was added to the cell culture plate. 5 μL of DMSO-cell culture mixture was added to the Max control. The final concentration of DMSO was 0.1%.
d) The culture plate was incubated in an incubator at 37° C., 5% CO2 for 72 hours.
Cell proliferation inhibition rate (Inhibition Rate) data were processed using the following formula:
Inhibition Rate (Inh %)=100−(RLUDrug−RLUMin)/(RLUMax−RLUMin)*100%.
The inhibition rates corresponding to different concentrations of compounds were calculated, and then GraphPad Prism software was used to draw the inhibition rate curve and the IC50 value was calculated.

Sequence of Ba/F3-FL-EGFR (del19-E746-A750/C797S) (P00533 with tags, fused parts or gaps DEL746-750/C797S): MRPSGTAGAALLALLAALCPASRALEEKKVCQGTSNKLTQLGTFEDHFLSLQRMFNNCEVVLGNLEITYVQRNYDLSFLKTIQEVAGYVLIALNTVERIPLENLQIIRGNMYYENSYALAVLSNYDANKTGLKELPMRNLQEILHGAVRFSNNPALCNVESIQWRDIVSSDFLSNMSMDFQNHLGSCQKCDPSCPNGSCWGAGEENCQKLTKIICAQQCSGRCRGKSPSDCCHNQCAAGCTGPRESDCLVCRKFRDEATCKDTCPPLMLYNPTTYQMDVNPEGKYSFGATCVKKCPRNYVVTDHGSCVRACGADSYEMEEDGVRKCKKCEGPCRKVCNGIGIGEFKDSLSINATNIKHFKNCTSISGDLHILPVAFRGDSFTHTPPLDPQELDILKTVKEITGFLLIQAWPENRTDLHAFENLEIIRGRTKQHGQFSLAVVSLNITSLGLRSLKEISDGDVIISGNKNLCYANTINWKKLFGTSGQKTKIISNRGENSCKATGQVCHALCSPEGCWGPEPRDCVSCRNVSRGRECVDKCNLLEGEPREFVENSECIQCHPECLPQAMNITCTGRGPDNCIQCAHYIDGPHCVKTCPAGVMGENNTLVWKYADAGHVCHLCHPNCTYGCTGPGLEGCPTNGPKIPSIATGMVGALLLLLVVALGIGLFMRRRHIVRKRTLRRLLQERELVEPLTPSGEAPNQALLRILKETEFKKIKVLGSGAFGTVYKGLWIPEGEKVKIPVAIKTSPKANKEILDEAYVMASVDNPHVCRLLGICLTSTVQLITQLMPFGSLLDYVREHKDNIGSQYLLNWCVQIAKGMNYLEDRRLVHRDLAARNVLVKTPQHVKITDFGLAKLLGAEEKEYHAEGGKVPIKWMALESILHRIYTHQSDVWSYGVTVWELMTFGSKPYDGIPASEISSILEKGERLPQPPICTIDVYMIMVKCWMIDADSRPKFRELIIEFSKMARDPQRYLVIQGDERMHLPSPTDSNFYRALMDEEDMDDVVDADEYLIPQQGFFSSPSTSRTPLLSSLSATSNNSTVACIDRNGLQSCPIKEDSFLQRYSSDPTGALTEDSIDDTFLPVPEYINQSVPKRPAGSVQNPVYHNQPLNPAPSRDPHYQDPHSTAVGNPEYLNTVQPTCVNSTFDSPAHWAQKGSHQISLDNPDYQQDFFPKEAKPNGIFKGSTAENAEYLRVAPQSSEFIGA

| Structure (SMILES) | GI50 [nM] |
| --- | --- |
| Cc1cc2cc(n1)-c1cnn(C)c1OC[C@H]1CC[C@H](C1)CN1/C(=N/C2=O)Nc2ccc(N=S(C)(C)=O)cc21 (single isomer, unassigned) [WX-027A] | 4.7 |
| Cc1cc2cc(n1)-c1cnn(C)c1OCCC[C@@H](C)CN1/C(=N/C2=O)Nc2ccc(N=S(C)(C)=O)c(Cl)c21 [WX-019] | 6.5 |
